Columns and labels:
aldosterone synthase = target: T1, aldosterone synthase (Homo sapiens, UniProt P19099); assay: Aldosterone cell secretion in Ang II-stimulated NCI-H295R cells (SPA with anti-aldosterone antibody); type: cell-based; conditions: human adrenocortical carcinoma NCI-H295R cells, 1 μM Ang II, 24 h
T1 construct: host or cells: NCI-H295R
T1 sequence (P19099 25-503): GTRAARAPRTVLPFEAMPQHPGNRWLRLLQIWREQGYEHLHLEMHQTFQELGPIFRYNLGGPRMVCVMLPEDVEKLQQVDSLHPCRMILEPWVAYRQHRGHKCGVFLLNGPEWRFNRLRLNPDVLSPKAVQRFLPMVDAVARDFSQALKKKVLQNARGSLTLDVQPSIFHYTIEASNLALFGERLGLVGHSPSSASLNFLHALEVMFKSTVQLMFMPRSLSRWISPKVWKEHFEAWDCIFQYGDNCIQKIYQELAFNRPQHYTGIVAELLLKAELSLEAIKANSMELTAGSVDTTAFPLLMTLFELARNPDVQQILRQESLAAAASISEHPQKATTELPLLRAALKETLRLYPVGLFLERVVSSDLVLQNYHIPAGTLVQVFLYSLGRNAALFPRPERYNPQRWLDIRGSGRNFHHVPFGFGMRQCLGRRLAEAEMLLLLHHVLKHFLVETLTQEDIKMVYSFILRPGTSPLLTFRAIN
From the text: In particular, the aldosterone synthase inhibitory activities in vitro can be determined by the following assay.
Human adrenocortical carcinoma NCI-H295R cell line was obtained from American Type Culture Collection (Manassas, Va.). Insulin/transferrin/selenium (ITS)-A supplement (100×), DMEM/F-12, antibiotic/antimycotic (100×), and fetal bovine serum (FBS) were purchased from Invitrogen (Carlsbad, Calif.). Anti-mouse PVT scintillation proximity assay (SPA) beads and NBS 96-well plates were obtained from GE Health Sciences (Piscataway, N.J.) and Corning (Acton, Mass.), respectively. Solid black 96-well flat bottom plates were purchased from Costar (Corning, N.Y.). Aldosterone and angiotensin (Ang II) were purchased from Sigma (St. Louis, Mo.). D-[1,2,6,7-^3H(N)]aldosterone was acquired from PerkinElmer (Boston, Mass.). Nu-serum was a product of BD Biosciences (Franklin Lakes, N.J.).
On the following day, cells are rinsed with 100 μL of phosphate-buffered saline (PBS) and incubated with 100 μL of treatment medium containing 1 μM Ang II and a compound at different concentrations in quadruplicate wells at 37° C. for 24 h. At the end of incubation, 50 μL of medium is withdrawn from each well for measurement of aldosterone production by an SPA using mouse anti-aldosterone monoclonal antibodies.
Measurement of aldosterone activity can also be performed using a 96-well plate format. […] Anti-mouse PVT SPA beads (50 μL) are then added to each well and incubated overnight at room temperature prior to counting in a Microbeta plate counter. The amount of aldosterone in each sample is calculated by comparing with a standard curve generated using known quantities of the hormone.
(§1) Inhibition of the release of certain steroids can be used as a measure of the respective enzyme inhibition by the added test compounds. The dose-dependent inhibition of enzymatic activity by a compound is calculated by means of an inhibition plot which is characterized by an IC50.
The inhibition plot is calculated by fitting a 4-parameter logistic function to the raw data points using the least squares method. The equation of the 4-parameter logistic function is calculated as follows: Y=(d−a)/((1+(x/c)b))+a, where: a=minimum data level, b=gradient, I […], d=maximum data level, x=inhibitor concentration.

[1] = target: T2, CYP11B1 (steroid 11 β-hydroxylase) (Homo sapiens, UniProt P15538); assay: Cortisol cell secretion in NCI-H295R cells (in vitro inhibitory activity for CYP11B1); type: cell-based; conditions: compound at 1 μM
T2 construct: the NCI-H295R cells have CYP11B1 (steroid 11 β-hydroxylase); host or cells: NCI-H295R
T2 sequence (P15538 25-503): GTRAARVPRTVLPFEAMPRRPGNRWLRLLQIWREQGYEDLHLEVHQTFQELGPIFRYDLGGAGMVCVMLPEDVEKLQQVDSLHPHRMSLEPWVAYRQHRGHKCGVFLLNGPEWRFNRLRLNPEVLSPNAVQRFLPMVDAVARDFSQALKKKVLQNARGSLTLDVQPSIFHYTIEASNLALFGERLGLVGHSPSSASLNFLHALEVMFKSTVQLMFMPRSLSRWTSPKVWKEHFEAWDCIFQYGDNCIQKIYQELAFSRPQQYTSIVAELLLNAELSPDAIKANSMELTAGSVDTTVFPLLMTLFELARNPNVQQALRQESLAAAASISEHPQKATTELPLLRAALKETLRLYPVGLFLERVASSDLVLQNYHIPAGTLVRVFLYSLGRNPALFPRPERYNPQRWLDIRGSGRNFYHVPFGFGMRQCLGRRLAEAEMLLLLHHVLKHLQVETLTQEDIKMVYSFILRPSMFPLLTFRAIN
From the text: The in vitro inhibitory activities for CYP11B1 can be determined by the following assay.
The cell line NCI-H295R was originally isolated from an adrenocortical carcinoma and has been characterized in the literature through the stimulable secretion of steroid hormones and the presence of the enzymes essential for steroidogenesis. Thus, the NCI-H295R cells have CYP11B1 (steroid 11 β-hydroxylase). The cells show the physiological property of zonally undifferentiated human fetal adrenocortical cells which, however, have the capacity to produce the steroid hormones which are formed in the three, phenotypically distinguishable zones in the adult adrenal cortex.
The NCI-H295R cells (American Type Culture Collection, ATCC, Rockville, Md., USA) are grown in Dulbeoco's Modified Eagle'Ham F-12 Medium (DME/F12), which has been supplemented with Ulroser SF Serum (Soprachem, Cergy-Saint-Christophe, France), insulin, transferrin, selenite (I-T-S, Becton Dickinson Biosiences, Franklin lakes, N.J., USA) and antibiotics in 75 cm^2 cell culture vessels at 37° C. and in a 95% air-5% carbon dioxide atmosphere. The cells are subsequently transferred for colony formation into a 24-well incubation vessel. They are cultivated there in DME/F12 medium, which is now supplemented with 0.1% bovine serum instead of Ultroser SF for 24 hours. The experiment is initiated by cultivating the cells in DME/F12 medium which is supplemented with 0.1% bovine serum albumin and test compound, in the presence or absence of cell stimulants, for 72 hours. The test substance is added in a concentration range from 0.2 nanomolar to […]. Cell stimulants which can be used are angiotensin II ([…] or 100 nanomolar), potassium ions (16 millimolar), forskolin (10 micromolar) or a combination of two stimulants.
The excretion of aldosterone, cortisol, corticosterone and estradiol/estrone into the culture medium can be detected and quantified by commercially available, specific monoclonal antibodies in radioimmunoassays in accordance with the manufacturer's instructions.
as §1
The inhibition activity of CYP11B1 production can also be expressed in percentage inhibition (% inhibition) at a given concentration (e.g. % inhibition at 1 μM), which is the cortisol level when cell is treated with the given concentration of a compound of the invention (e.g. concentration of 1 μM) versus the cortisol excretion when cell is free of the compound of the invention. % inhibition cortisol production=[(Y′−X′)/Y′]×100 wherein X′ is the level of cortisol when the cell is treated with a compound of Formula I; and Y′ is the level of cortisol when the cell is free of compound of Formula I.

SMILES | IC50 (aldosterone synthase) | inhibition at 1 µM ([1]; NCI-H295R) | inhibition at 1 µM [1]
CCS(=O)(=O)NC(c1cncc(-c2ccc(C#N)cc2F)c1)C1CC1 (centres unmarked) [N-(5-(4-cyano-2-fluorophenyl)pyridin-3-yl)(cyclopropyl)methyl)ethanesulfonamide] | 167 nM | 39% | 
CCS(=O)(=O)NC(c1cncc(-c2ccc(F)c(Cl)c2)c1)C1CC1 (centres unmarked) [N-((5-(3-chloro-4-fluorophenyl)pyridin-3-yl)(cyclopropyl)methyl)-ethanesulfonamide] | 22 nM | 21% | 
CCS(=O)(=O)NCc1cncc(-c2cc3ccc(Cl)nc3n2C)c1 [Ethanesulfonic acid [5-(6-chloro-1-methyl-1H-pyrrolo[2,3-b]pyridin-2-yl)-pyridin-3-ylmethyl]-amide] | 8 nM |  | 40%
CCS(=O)(=O)NCc1cncc(-c2nc3ccc(Cl)cc3n2C)c1 [N-(5-(6-chloro-1-methyl-1H-benzo[d]imidazol-2-yl)pyridin-3-yl)methyl)ethanesulfonamide] | 97 nM | 24% | 
CCS(=O)(=O)N(C)C(c1cncc(-c2ccc(C#N)c(Cl)c2)c1)C1CC1 (centres unmarked) [N-((5-(3-chloro-4-cyanophenyl)pyridin-3-yl)(cyclopropyl)methyl)-N-methylethanesulfonamide] | 5 nM | 63% | 
CCCC(NS(=O)(=O)CC)c1cncc(-c2ccc(C#N)c(Cl)c2)c1 (single isomer, unassigned) [N-(1-(5-(3-chloro-4-cyanophenyl)pyridin-3-yl)butyl)ethanesulfonamide] | 89 nM | 26% | 
CCc1ccc(S(=O)(=O)Nc2cncc(-c3ccc(C#N)c(Cl)c3)c2)cc1 [N-[5-(3-Chloro-4-cyano-phenyl)-pyridin-3-yl]-4-ethyl-benzene-sulfonamide] | 6 nM | 78% | 
COc1cc(-c2cncc(CNS(C)(=O)=O)c2)ccc1C#N [N-((5-(4-cyano-3-methoxyphenyl)pyridin-3-yl)methyl)methane-sulfonamide] | 85 nM | 40% | 
CCS(=O)(=O)NC1CC1c1cncc(-c2cccc(Cl)c2Cl)c1 (centres unmarked) [N-(2-(5-(2,3-dichlorophenyl)pyridin-3-yl)cyclopropyl)ethane-sulfonamide] | 3 nM | 75% | 
COc1cc(-c2cncc(NS(=O)(=O)C3CC3)c2)ccc1C#N [N-(5-(4-cyano-3-methoxyphenyl)pyridin-3-yl)cyclopropane-sulfonamide] | 77 nM | 32% | 
N#Cc1ccc(-c2cncc(CN3CCCS3(=O)=O)c2)cc1Cl [2-Chloro-4-[5-(1,1-dioxo-isothiazolidin-2-ylmethyl)-pyridin-3-yl]-benzonitrile] | 12 nM | 64% | 
CCS(=O)(=O)N(CC(C)C)C(c1cncc(-c2ccc(C#N)c(Cl)c2)c1)C1CC1 (centres unmarked) [Ethanesulfonic acid {[5-(3-chloro-4-cyano-phenyl)-pyridin-3-yl]-cyclopropyl-methyl}-isobutyl-amide] | 98 nM | 35% | 
CCS(=O)(=O)N(CCO)C(c1cncc(-c2ccc(C#N)c(Cl)c2)c1)C1CC1 (centres unmarked) [Ethanesulfonic acid {[5-(3-chloro-4-cyano-phenyl)-pyridin-3-yl]-cyclopropyl-methyl}-(2-hydroxy-ethyl)-amide] | 20 nM | 51% | 
